Assay results reported in patent publication US7118895B2, “Process for producing aglycon by using diglycosidase and flavor-improved food containing the aglycon and converting agent to be used in the process” (Amano Enzyme Inc., priority 2000, dated 2006).

System: Crude diglycosidase
Test: Examination of temperature in the conversion into isoflavone aglycons by diglycosidase using soybean materials
Format: biochemical, Penicillium multicolor IAM7153
Set-up: Decomposition efficiency of glycitin family in roasted soy flour / Decomposition efficiency of daidzin family in roasted soy flour / Decomposition efficiency of genistin family in soymilk / Decomposition efficiency of daidzin family in soymilk / Decomposition efficiency of glycitin family in defatted soybean / Decomposition efficiency of daidzin family in defatted soybean: concentration or dose not given beside the values
How it was run: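 Temperature series (30-80° C.) of crude diglycosidase, diluted to 1.88 AU/mL in 20 mM acetate pH 4.0, acting on roasted soy flour, soymilk, defatted soybean or soy protein concentrate. Samples quenched with ethanol after 0-6 h, centrifuged, filtered and analyzed by HPLC for glycosides versus aglycons.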

[1] = 30° C., heat treatment of enzyme no, reaction time 0 h
[2] = 30° C., heat treatment of enzyme no, reaction time 1 h
[3] = 30° C., heat treatment of enzyme no, reaction time 3 h
[4] = 30° C., heat treatment of enzyme no, reaction time 6 h
[5] = 30° C., heat treatment of enzyme yes, reaction time 6 h
[6] = 30 °C, heat treatment of enzyme: no, 0 h
[7] = 30 °C, heat treatment of enzyme: no, 1 h
[8] = 30 °C, heat treatment of enzyme: no, 3 h
[9] = 30 °C, heat treatment of enzyme: no, 6 h
[10] = 30 °C, heat treatment of enzyme: yes, 6 h
[11] = 45° C., heat treatment of enzyme no, reaction time 0 h
[12] = 45° C., heat treatment of enzyme no, reaction time 1 h
[13] = 45° C., heat treatment of enzyme no, reaction time 3 h
[14] = 45° C., heat treatment of enzyme no, reaction time 6 h
[15] = 45° C., heat treatment of enzyme yes, reaction time 6 h
[16] = 45 °C, heat treatment of enzyme: no, 0 h
[17] = 45 °C, heat treatment of enzyme: no, 1 h
[18] = 45 °C, heat treatment of enzyme: no, 3 h
[19] = 45 °C, heat treatment of enzyme: no, 6 h
[20] = 45 °C, heat treatment of enzyme: yes, 6 h
[21] = 55° C., heat treatment of enzyme no, reaction time 0 h
[22] = 55° C., heat treatment of enzyme no, reaction time 1 h
[23] = 55° C., heat treatment of enzyme no, reaction time 3 h
[24] = 55° C., heat treatment of enzyme no, reaction time 6 h
[25] = 55° C., heat treatment of enzyme yes, reaction time 6 h
[26] = 55 °C, heat treatment of enzyme: no, 0 h
[27] = 55 °C, heat treatment of enzyme: no, 1 h
[28] = 55 °C, heat treatment of enzyme: no, 3 h
[29] = 55 °C, heat treatment of enzyme: no, 6 h
[30] = 55 °C, heat treatment of enzyme: yes, 6 h
[31] = 65° C., heat treatment of enzyme no, reaction time 0 h
[32] = 65° C., heat treatment of enzyme no, reaction time 1 h
[33] = 65° C., heat treatment of enzyme no, reaction time 3 h
[34] = 65° C., heat treatment of enzyme no, reaction time 6 h
[35] = 65° C., heat treatment of enzyme yes, reaction time 6 h
[36] = 65 °C, heat treatment of enzyme: no, 0 h
[37] = 65 °C, heat treatment of enzyme: no, 1 h
[38] = 65 °C, heat treatment of enzyme: no, 3 h
[39] = 65 °C, heat treatment of enzyme: no, 6 h
[40] = 65 °C, heat treatment of enzyme: yes, 6 h
[41] = 80° C., heat treatment of enzyme no, reaction time 0 h
[42] = 80° C., heat treatment of enzyme no, reaction time 1 h
[43] = 80° C., heat treatment of enzyme no, reaction time 3 h
[44] = 80° C., heat treatment of enzyme no, reaction time 6 h
[45] = 80° C., heat treatment of enzyme yes, reaction time 6 h
[46] = 80 °C, heat treatment of enzyme: no, 0 h
[47] = 80 °C, heat treatment of enzyme: no, 1 h
[48] = 80 °C, heat treatment of enzyme: no, 3 h
[49] = 80 °C, heat treatment of enzyme: no, 6 h
[50] = 80 °C, heat treatment of enzyme: yes, 6 h

Decomposition efficiency of genistin family in concentrated soybean protein [1]: 49.8%
Decomposition efficiency of genistin family in defatted soybean [1]: 38.0%
Decomposition efficiency of genistin family in concentrated soybean protein [2]: 41.1%
Decomposition efficiency of genistin family in defatted soybean [2]: not detected
Decomposition efficiency of genistin family in concentrated soybean protein [3]: 30.3%
Decomposition efficiency of genistin family in defatted soybean [3]: not detected
Decomposition efficiency of genistin family in concentrated soybean protein [4]: 19.7%
Decomposition efficiency of genistin family in defatted soybean [4]: 7.6%
Decomposition efficiency of genistin family in concentrated soybean protein [5]: 51.8%
Decomposition efficiency of genistin family in defatted soybean [5]: not detected
Decomposition efficiency of genistin family in roasted soy flour [6]: 49.7%
Decomposition efficiency of genistin family in soymilk [6]: 30.7%
Decomposition efficiency of genistin family in roasted soy flour [7]: 25.7%
Decomposition efficiency of genistin family in soymilk [7]: not detected
Decomposition efficiency of genistin family in roasted soy flour [8]: 12.0%
Decomposition efficiency of genistin family in soymilk [8]: not detected
Decomposition efficiency of genistin family in roasted soy flour [9]: 5.5%
Decomposition efficiency of genistin family in soymilk [9]: not detected
Decomposition efficiency of genistin family in roasted soy flour [10]: 50.3%
Decomposition efficiency of genistin family in soymilk [10]: 31.2%
Decomposition efficiency of genistin family in concentrated soybean protein [11]: 49.7%
Decomposition efficiency of genistin family in defatted soybean [11]: 37.0%
Decomposition efficiency of genistin family in concentrated soybean protein [12]: 22.2%
Decomposition efficiency of genistin family in defatted soybean [12]: 0.9%
Decomposition efficiency of genistin family in concentrated soybean protein [13]: 15.6%
Decomposition efficiency of genistin family in defatted soybean [13]: 1.0%
Decomposition efficiency of genistin family in concentrated soybean protein [14]: 5.3%
Decomposition efficiency of genistin family in defatted soybean [14]: 1.0%
Decomposition efficiency of genistin family in concentrated soybean protein [15]: 54.5%
Decomposition efficiency of genistin family in defatted soybean [15]: 1.3%
Decomposition efficiency of genistin family in roasted soy flour [16]: 50.2%
Decomposition efficiency of genistin family in soymilk [16]: 31.0%
Decomposition efficiency of genistin family in roasted soy flour [17]: 3.7%
Decomposition efficiency of genistin family in soymilk [17]: not detected
Decomposition efficiency of genistin family in roasted soy flour [18]: 5.6%
Decomposition efficiency of genistin family in soymilk [18]: not detected
Decomposition efficiency of genistin family in roasted soy flour [19]: 1.2%
Decomposition efficiency of genistin family in soymilk [19]: not detected
Decomposition efficiency of genistin family in roasted soy flour [20]: 51.7%
Decomposition efficiency of genistin family in soymilk [20]: 34.4%
Decomposition efficiency of genistin family in concentrated soybean protein [21]: 50.1%
Decomposition efficiency of genistin family in defatted soybean [21]: 38.0%
Decomposition efficiency of genistin family in concentrated soybean protein [22]: 7.0%
Decomposition efficiency of genistin family in defatted soybean [22]: 0.0%
Decomposition efficiency of genistin family in concentrated soybean protein [23]: 0.8%
Decomposition efficiency of genistin family in defatted soybean [23]: 0.0%
Decomposition efficiency of genistin family in concentrated soybean protein [24]: not detected
Decomposition efficiency of genistin family in defatted soybean [24]: 0.0%
Decomposition efficiency of genistin family in concentrated soybean protein [25]: 52.3%
Decomposition efficiency of genistin family in defatted soybean [25]: 0.0%
Decomposition efficiency of genistin family in roasted soy flour [26]: 49.7%
Decomposition efficiency of genistin family in soymilk [26]: 31.6%
Decomposition efficiency of genistin family in roasted soy flour [27]: 1.2%
Decomposition efficiency of genistin family in soymilk [27]: not detected
Decomposition efficiency of genistin family in roasted soy flour [28]: not detected
Decomposition efficiency of genistin family in soymilk [28]: not detected
Decomposition efficiency of genistin family in roasted soy flour [29]: not detected
Decomposition efficiency of genistin family in soymilk [29]: not detected
Decomposition efficiency of genistin family in roasted soy flour [30]: 54.0%
Decomposition efficiency of genistin family in soymilk [30]: 37.4%
Decomposition efficiency of genistin family in concentrated soybean protein [31]: 49.8%
Decomposition efficiency of genistin family in defatted soybean [31]: 37.0%
Decomposition efficiency of genistin family in concentrated soybean protein [32]: not detected
Decomposition efficiency of genistin family in defatted soybean [32]: 0.0%
Decomposition efficiency of genistin family in concentrated soybean protein [33]: not detected
Decomposition efficiency of genistin family in defatted soybean [33]: 1.8%
Decomposition efficiency of genistin family in concentrated soybean protein [34]: not detected
Decomposition efficiency of genistin family in defatted soybean [34]: 3.3%
Decomposition efficiency of genistin family in concentrated soybean protein [35]: 50.8%
Decomposition efficiency of genistin family in defatted soybean [35]: 28.2%
Decomposition efficiency of genistin family in roasted soy flour [36]: 49.7%
Decomposition efficiency of genistin family in soymilk [36]: 30.7%
Decomposition efficiency of genistin family in roasted soy flour [37]: not detected
Decomposition efficiency of genistin family in soymilk [37]: not detected
Decomposition efficiency of genistin family in roasted soy flour [38]: not detected
Decomposition efficiency of genistin family in soymilk [38]: not detected
Decomposition efficiency of genistin family in roasted soy flour [39]: not detected
Decomposition efficiency of genistin family in soymilk [39]: not detected
Decomposition efficiency of genistin family in roasted soy flour [40]: 50.7%
Decomposition efficiency of genistin family in soymilk [40]: 44.4%
Decomposition efficiency of genistin family in concentrated soybean protein [41]: 49.7%
Decomposition efficiency of genistin family in defatted soybean [41]: 37.0%
Decomposition efficiency of genistin family in concentrated soybean protein [42]: 29.6%
Decomposition efficiency of genistin family in defatted soybean [42]: 9.6%
Decomposition efficiency of genistin family in concentrated soybean protein [43]: 30.3%
Decomposition efficiency of genistin family in defatted soybean [43]: 22.1%
Decomposition efficiency of genistin family in concentrated soybean protein [44]: 32.3%
Decomposition efficiency of genistin family in defatted soybean [44]: 35.3%
Decomposition efficiency of genistin family in concentrated soybean protein [45]: 51.9%
Decomposition efficiency of genistin family in defatted soybean [45]: 57.8%
Decomposition efficiency of genistin family in roasted soy flour [46]: 50.2%
Decomposition efficiency of genistin family in soymilk [46]: 31.0%
Decomposition efficiency of genistin family in roasted soy flour [47]: 7.8%
Decomposition efficiency of genistin family in soymilk [47]: 10.6%
Decomposition efficiency of genistin family in roasted soy flour [48]: 9.1%
Decomposition efficiency of genistin family in soymilk [48]: 24.3%
Decomposition efficiency of genistin family in roasted soy flour [49]: 18.4%
Decomposition efficiency of genistin family in soymilk [49]: 43.9%
Decomposition efficiency of genistin family in roasted soy flour [50]: 52.2%
Decomposition efficiency of genistin family in soymilk [50]: 64.5%
SMILES: O=c1c(-c2ccc(O)cc2)coc2cc(O[C@@H]3O[C@H](CO)[C@@H](O)[C@H](O)[C@H]3O)cc(O)c12 [genistin]
